Read-outs that look alike come from different tables or passages of the source.
How the values were obtained:
Assay type in all cases: biochemical
[1] = target: T1, Carnosine dipeptidase 2 (CNDP2) (Mus musculus, UniProt Q9D1A2); test: LC-MS assay of Cys-Gly hydrolysis by purified CNDP2 (Cys-NEM readout; IC50 […] by Gly)
T1 sequence (Q9D1A2 1-475): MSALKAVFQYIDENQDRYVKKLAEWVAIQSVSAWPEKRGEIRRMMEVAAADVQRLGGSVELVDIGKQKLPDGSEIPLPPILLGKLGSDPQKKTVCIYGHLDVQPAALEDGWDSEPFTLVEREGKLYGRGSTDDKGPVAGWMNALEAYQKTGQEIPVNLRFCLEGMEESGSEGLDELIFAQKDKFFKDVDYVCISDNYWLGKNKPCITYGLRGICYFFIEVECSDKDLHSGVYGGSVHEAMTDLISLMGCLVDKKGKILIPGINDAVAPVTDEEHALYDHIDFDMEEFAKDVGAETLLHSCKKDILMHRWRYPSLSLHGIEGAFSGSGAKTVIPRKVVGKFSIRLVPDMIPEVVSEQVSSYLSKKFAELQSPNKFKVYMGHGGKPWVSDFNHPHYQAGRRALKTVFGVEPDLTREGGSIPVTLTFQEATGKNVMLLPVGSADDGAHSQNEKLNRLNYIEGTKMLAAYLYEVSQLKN

[2] = target: T1, Carnosine dipeptidase 2 (CNDP2); test: as above; remark: listed apart in the source
[3] = target: T1, Carnosine dipeptidase 2 (CNDP2); test: LC-MS detection of Cys-NEM and Gly products from Cys-Gly ([…]) hydrolysed by purified CNDP2

`O=C(Nc1nnc(-c2ccc(F)cc2)o1)c1ccc(Cl)cc1` [KKL-35] was tested, and the IC50 [1] was 118 µM.

`CC(C)C[C@H](NC(=O)[C@@H](O)[C@H](N)Cc1ccccc1)C(=O)O` [Bestatin] showed an IC50 [2] of 1 µM.

In the case of `N[C@@H](CS)C(=O)NCC(=O)O` [Cys-Gly], the “LC-MS detection of Cys-NEM and Gly products from Cys-Gly (5 mM) hydrolysed by pu” value [3] is reported as “Cys-Gly was hydrolyzed by CNDP2 to produce cysteine (Cys) and glycine (Gly)”.
